Assay results from ChEMBL document CHEMBL1131228, “Molecular modeling of phenothiazines and related drugs as multidrug resistance modifiers: a comparative molecular field analysis study” (1998).

System: MCF7-DOX
Assay: Anti MDR activity was expressed as MDR ratio or MDR fold reversal in doxorubicin resistant human breast carcinoma tumor cell line MCF-7/DOX
Format: functional

Compound | MDR ratio
CCN(CC)CCC=C1c2ccccc2Sc2ccc(Cl)cc21 | 7.2
CN(C)CC=C1c2ccccc2Sc2ccc(Cl)cc21 | 1.3
Clc1ccc2c(c1)C(=CCCN1CCCCC1)c1ccccc1S2 | 15
CN(C)CCC=C1c2ccccc2Sc2ccc(C(F)(F)F)cc21 | 2.8
CN(C)CCCN1c2cc(O)ccc2Sc2cc(O)c(Cl)cc21 | 0.9
OCCN1CCN(CCCC2c3ccccc3Sc3ccc(Cl)cc32)CC1 (configuration not stated) | 9.7
CN(C)CCCN1c2cc(Cl)ccc2Sc2cc(O)c(O)cc21 | 0.8
CN(C)CCCN1c2ccccc2Sc2c(Cl)cccc21 | 1.4
OCCN1CCN(C/C=C2/c3ccccc3Sc3ccc(Cl)cc32)CC1 | 1.6
CN(C)CCCN1c2ccccc2Sc2cccc(Cl)c21 | 1.3
Clc1ccc2c(c1)/C(=C\CCN1CCCCC1)c1ccccc1S2 | 6.7
CN(C)CCCN1c2ccccc2Sc2cc(Cl)ccc21 | 1.3
CCN(CC)CC/C=C1/c2ccccc2Sc2ccc(Cl)cc21 | 4
CN(C)C/C=C1/c2ccccc2Sc2ccc(Cl)cc21 | 1.1
CN(C)CCCCN1c2ccccc2Sc2ccc(Cl)cc21 | 2
CSc1ccc2c(c1)N(CCCN(C)C)c1ccccc1S2 | 1.5
CN(C)CC/C=C1/c2ccccc2Sc2ccc(C(F)(F)F)cc21 | 1.8
CN(C)CCC=C1c2ccccc2Sc2ccc(Cl)cc21 | 7
OCCN1CCN(CC/C=C2/c3ccccc3Sc3ccc(Cl)cc32)CC1 (stereo in doubt; 34) [ZUCLOPENTHIXOL] | 2.6

Compound | MDR ratio
OCCN1CCN(CC/C=C2/c3ccccc3Sc3ccc(Cl)cc32)CC1 (stereo in doubt; 35) [ZUCLOPENTHIXOL] | 15
CN(C)CCCN1c2ccc(O)cc2Sc2ccc(Cl)cc21 [7-HYDROXYCHLORPROMAZINE] | 1
CN(C)CCCN1c2ccccc2[S+]([O-])c2ccc(Cl)cc21 (configuration not stated) [CHLOROPROMAZINE SULFOXIDE] | 2.2
CCN(CC)CCCN1c2ccccc2Sc2ccc(Cl)cc21 [CHLORPROETHAZINE] | 2.2
CN(C)CCCN1c2ccccc2Sc2ccc(Cl)cc21 [CHLORPROMAZINE] | 1.6
CN(C)CC/C=C1/c2ccccc2Sc2ccc(Cl)cc21 [CHLORPROTHIXENE] | 2
CN(C)CCN1c2ccccc2Sc2ccc(Cl)cc21 [CHOLRPHENETHAZINE] | 1.5
OCCN1CCN(CCCN2c3ccccc3Sc3ccc(C(F)(F)F)cc32)CC1 [FLUPHENAZINE] | 2.7
CN(C)CCCN1c2ccccc2CCc2ccccc21 [IMIPRAMINE] | 2.5
CNCCCN1c2ccccc2Sc2ccc(Cl)cc21 [NOR1-CHLORPROMAZINE] | 1.2
NCCCN1c2ccccc2Sc2ccc(Cl)cc21 [NOR2-CHLORPROMAZINE] | 1.1
OCCN1CCN(CCCN2c3ccccc3Sc3ccc(Cl)cc32)CC1 [PERPHENAZINE] | 2
CN(C)CCCN1c2ccccc2Sc2ccccc21 [PROMAZINE] | 1.2
CC(CN1c2ccccc2Sc2ccccc21)N(C)C (configuration not stated) [PROMETHAZINE] | 1.9
CCN(CC)CCCC(C)Nc1c2ccc(Cl)cc2nc2ccc(OC)cc12 (configuration not stated) [QUINACRINE] | 1.3
CN1CCN(CCCN2c3ccccc3Sc3ccc(C(F)(F)F)cc32)CC1 [TRIFLUOPERAZINE] | 3.4
OCCN1CCN(CC/C=C2/c3ccccc3Sc3ccc(C(F)(F)F)cc32)CC1 [Z-FLUPENTIXOL] | 15.2
FLUPENTIXOL | 4.8
